Measurements taken from patent US20240190849A1, “AMINOPYRIMIDINE COMPOUNDS AND METHODS OF THEIR USE” (TYRA BIOSCIENCES, INC., priority 2021, published 2024).

Legend:
[1] = target: T1, FGFR1 (Homo sapiens, UniProt P11362); experiment: Kinase binding assay (kinase-tagged T7 phage, affinity beads, qPCR readout), FGFR1; conditions: FGFR binding data
T1 construct: made in house; host or cells: E. coli derived from BL21, infected with T7 phage
How it was run: (§1)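 Competition binding: kinases displaced from biotinylated-ligand streptavidin beads by test compound in binding buffer (20% SeaBlock, 0.17×PBS, 0.05% Tween 20, 6 mM DTT), 1 hour at room temperature, 0.9% DMSO. Bead-bound kinase eluted with 0.5 μM free ligand, quantified by qPCR. Kd from 11-point 3-fold dilutions, Hill slope fixed at −1.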

[2] = target: T2, FGFR2 (Homo sapiens, UniProt P21802); experiment: Kinase binding assay (kinase-tagged T7 phage, affinity beads, qPCR readout), FGFR2; conditions: FGFR binding data
T2 construct: made in house; host or cells: E. coli derived from BL21, infected with T7 phage
How it was run: as §1

[3] = target: T3, FGFR3 (Homo sapiens, UniProt P22607); experiment: Kinase binding assay (kinase-tagged T7 phage, affinity beads, qPCR readout), FGFR3; conditions: FGFR binding data
T3 construct: made in house; host or cells: E. coli derived from BL21, infected with T7 phage
How it was run: as §1

[4] = target: T4, FGFR3 (V555M) (Homo sapiens, UniProt P22607, V555M); experiment: Kinase binding assay (kinase-tagged T7 phage, affinity beads, qPCR readout), FGFR3 (V555M); conditions: FGFR binding data
T4 construct: made in house; host or cells: E. coli derived from BL21, infected with T7 phage
How it was run: as §1

[5] = system: RT112/84 (Bladder Cancer), FGFR3-TACC3 fusion; experiment: Cancer cell viability assay (Cell Titer-Glo), RT112/84; type: cell-based; conditions: Homo sapiens, RT112/84 cells, 72 hours
How it was run: (§2)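 Cells seeded at 10,000/well in RPMI1640 with 10% FBS, then exposed 72 h at 37° C. to a 9-point 10-fold dilution series from 30 μM, in triplicate. Viability read as ATP luminescence (CellTiter-Glo 2.0) as percent of DMSO control; IC50 from 4-parameter sigmoidal fit.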

[6] = system: UM-UC-14 (Bladder Cancer), FGFR3(S249C); experiment: Cancer cell viability assay (Cell Titer-Glo), UM-UC-14; type: cell-based; conditions: UMUC14, UM-UC-14 cells, 72 hours
How it was run: as §2

[7] = system: KG-1 (Acute Myeloid Leukemia), FGFR1OP2-FGFR1 fusion; experiment: Cancer cell viability assay (Cell Titer-Glo), KG-1; type: cell-based; conditions: Homo sapiens, KG-1 cells, 72 hours
Text: RT112/84, UM-UC-14, SNU-16 and KG-1 Cancer Cell Line Cell Viability Assays
To detect the change of intracellular ATP by Cell Titer-Glo@ and to evaluate the inhibitory effect of the compounds on cancer cell lines by determining the in vitro IC50 value of the compounds.
Cell Titer-Glo@ 2.0 Luminescent cell viability assay reagent was purchased from Promega (Madison, WI). RT112/84, SNU-16, and KG-1 cell lines were purchased from American Type Culture Collection (Manassas, VA). UM-UC-14 cell line was purchased from Sigma (St. Louis, MO). RT112/84, UM-UC-14, SNU-16, and KG-1 cells were cultured in RPMI1640 media supplemented with 10% fetal bovine serum. Cultures were maintained at 37° C. in a humidified atmosphere of 5% CO2 and 95% air.
Cell Viability Assay Procedure: Cells were plated in 96-well clear bottom/white plates (Corning #3903) at 10,000 cells/well in 100 μl of media, incubated overnight. The next day, test compound DMSO stock solutions were made at 10 mM and 2 μM final concentration. Compounds were then added to cells in a 9-dose, […] dilution series starting at 30 μM with an HP 300e Digital Dispenser (each dose was applied in triplicate). DMSO was backfilled to each well up to 301 nL total volume of test compound+DMSO, and a total of 301 nL DMSO was added to a control/no test compound well in triplicate. The cells in cell culture plates were incubated with the compounds at 37° C. and 5% CO2 for 72 hours. Then 50 μl of Cell Titer Glo 2.0 reagent was added to each well of the cell culture plates. The contents were covered from light and mixed on an orbital shaker at room temperature for 10 min. Luminescence was recorded by a Synergy H1 Microplate Reader (Biotek, Winooski, VT). Cells were assessed as a percentage of DMSO only treated control cells. Curves were plotted and IC50 values were calculated using the GraphPad Prism 8 program based on a sigmoidal dose-response equation (4 parameter).

[8] = system: SNU-16 (Gastric Carcinoma), FGFR2 amplification; experiment: Cancer cell viability assay (Cell Titer-Glo), SNU-16; type: cell-based; conditions: Homo sapiens, SNU-16 cells, 72 hours, read-out: SNU16 FGFR2 (IC50 nM)
How it was run: as §2

T4 sequence (P22607 23-806 V555M): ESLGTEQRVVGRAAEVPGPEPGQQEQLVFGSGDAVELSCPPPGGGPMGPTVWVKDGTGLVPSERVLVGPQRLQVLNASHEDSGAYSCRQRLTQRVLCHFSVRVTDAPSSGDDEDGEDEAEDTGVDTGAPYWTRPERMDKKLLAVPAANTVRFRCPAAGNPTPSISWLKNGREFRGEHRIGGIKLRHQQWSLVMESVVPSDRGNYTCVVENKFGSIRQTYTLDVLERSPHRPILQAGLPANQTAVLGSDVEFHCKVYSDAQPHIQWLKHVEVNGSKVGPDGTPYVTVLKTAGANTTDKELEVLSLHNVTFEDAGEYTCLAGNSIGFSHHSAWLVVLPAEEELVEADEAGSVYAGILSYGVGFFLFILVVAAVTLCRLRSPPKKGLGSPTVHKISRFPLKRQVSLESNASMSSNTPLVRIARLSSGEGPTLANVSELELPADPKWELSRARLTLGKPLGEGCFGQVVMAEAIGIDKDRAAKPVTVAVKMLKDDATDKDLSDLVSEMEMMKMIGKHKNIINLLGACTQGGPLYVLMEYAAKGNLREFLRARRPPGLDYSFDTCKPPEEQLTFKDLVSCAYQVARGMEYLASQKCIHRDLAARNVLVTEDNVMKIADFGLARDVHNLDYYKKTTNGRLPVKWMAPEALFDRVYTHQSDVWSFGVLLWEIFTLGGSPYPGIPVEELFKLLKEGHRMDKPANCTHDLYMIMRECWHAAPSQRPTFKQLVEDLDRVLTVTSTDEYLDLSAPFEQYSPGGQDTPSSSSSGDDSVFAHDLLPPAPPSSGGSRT
T3 sequence (P22607 23-806): as the sequence (P22607 23-806 V555M) above, with M533V counted along it
T1 sequence (P11362 22-822): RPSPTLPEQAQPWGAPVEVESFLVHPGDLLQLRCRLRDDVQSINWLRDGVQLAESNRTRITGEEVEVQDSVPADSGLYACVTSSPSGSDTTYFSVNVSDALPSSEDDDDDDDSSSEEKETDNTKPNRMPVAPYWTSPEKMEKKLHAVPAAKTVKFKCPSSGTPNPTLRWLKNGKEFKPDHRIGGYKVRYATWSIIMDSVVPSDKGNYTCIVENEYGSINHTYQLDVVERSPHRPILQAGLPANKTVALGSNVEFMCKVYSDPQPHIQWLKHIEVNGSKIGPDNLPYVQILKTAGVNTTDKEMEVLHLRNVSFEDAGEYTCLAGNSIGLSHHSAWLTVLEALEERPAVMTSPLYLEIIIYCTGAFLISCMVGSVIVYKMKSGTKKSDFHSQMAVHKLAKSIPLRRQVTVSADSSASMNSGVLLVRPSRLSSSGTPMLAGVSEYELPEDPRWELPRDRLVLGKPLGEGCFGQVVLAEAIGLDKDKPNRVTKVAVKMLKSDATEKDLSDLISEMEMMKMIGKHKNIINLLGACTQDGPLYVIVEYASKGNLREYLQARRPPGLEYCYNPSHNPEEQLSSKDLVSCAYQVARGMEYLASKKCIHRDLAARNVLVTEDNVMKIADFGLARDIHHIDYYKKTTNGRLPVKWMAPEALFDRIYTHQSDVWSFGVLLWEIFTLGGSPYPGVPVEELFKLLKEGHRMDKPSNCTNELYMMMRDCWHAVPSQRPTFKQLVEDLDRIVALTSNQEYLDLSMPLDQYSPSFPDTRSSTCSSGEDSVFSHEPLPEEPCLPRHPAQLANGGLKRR
T2 sequence (P21802 22-821): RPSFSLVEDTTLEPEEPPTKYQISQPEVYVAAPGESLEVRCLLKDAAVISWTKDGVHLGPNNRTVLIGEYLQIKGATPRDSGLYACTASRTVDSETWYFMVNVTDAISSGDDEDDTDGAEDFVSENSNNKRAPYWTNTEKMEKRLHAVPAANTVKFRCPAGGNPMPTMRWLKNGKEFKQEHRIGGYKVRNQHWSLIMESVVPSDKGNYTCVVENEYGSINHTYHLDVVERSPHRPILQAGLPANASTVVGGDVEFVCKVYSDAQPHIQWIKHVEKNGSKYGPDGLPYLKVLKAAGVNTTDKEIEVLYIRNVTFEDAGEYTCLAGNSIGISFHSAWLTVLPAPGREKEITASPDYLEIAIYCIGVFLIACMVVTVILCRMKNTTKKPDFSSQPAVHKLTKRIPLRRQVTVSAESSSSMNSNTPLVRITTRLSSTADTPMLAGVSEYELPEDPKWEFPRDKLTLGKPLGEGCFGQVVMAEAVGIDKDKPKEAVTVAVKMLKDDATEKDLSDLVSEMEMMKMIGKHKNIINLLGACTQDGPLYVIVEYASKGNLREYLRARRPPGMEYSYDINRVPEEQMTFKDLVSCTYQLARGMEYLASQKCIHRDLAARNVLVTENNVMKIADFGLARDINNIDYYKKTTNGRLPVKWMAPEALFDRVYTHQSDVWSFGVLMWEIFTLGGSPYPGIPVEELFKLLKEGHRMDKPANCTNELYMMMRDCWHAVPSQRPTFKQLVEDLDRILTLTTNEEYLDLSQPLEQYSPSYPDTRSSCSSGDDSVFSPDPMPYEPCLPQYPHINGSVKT

Row | Compound | Kd [1] | Kd [2] | Kd [3] | Kd [4] | IC50 [5] | IC50 [6] | IC50 [7] | IC50 [8]
1 | C=CC(=O)Nc1ccc2c(c1)c(C)cn2-c1nc(Nc2cnn(C)c2C)ncc1Cl [Example 40, N-[1-[5-chloro-2-[(1,5-dimethylpyrazol-4-yl)amino]pyrimidin-4-yl]-3-methyl-indol-5-yl]prop-2-enamide] | 0.1 to 100 nM | 0.1 to 100 nM | 0.1 to 100 nM | 0.1 to 100 nM | 0.1 to 100 nM | 0.1 to 100 nM | 0.1 to 100 nM | –
2 | C=CC(=O)Nc1ccc2c(c1)c(C)cn2-c1nc(Nc2cnn(C3CCN(CC)CC3)c2)ncc1Cl [Example 42, N-[1-[5-chloro-2-[[1-(1-ethyl-4-piperidyl)pyrazol-4-yl]amino]-pyrimidin-4-yl]-3-methyl-indol-5-yl]prop-2-enamide] | 0.1 to 100 nM | 0.1 to 100 nM | 0.1 to 100 nM | 0.1 to 100 nM | 0.1 to 100 nM | 0.1 to 100 nM | 0.1 to 100 nM | –
3 | C=CC(=O)Nc1ccc2c(c1)c(C)cn2-c1nc(Nc2ccc(N3CCOCC3)cc2)ncc1C [Example 44, N-[3-methyl-1-[5-methyl-2-(4-morpholinoanilino)pyrimidin-4-yl]indol-5-yl]prop-2-enamide] | 0.1 to 100 nM | 0.1 to 100 nM | 0.1 to 100 nM | 0.1 to 100 nM | 0.1 to 100 nM | 0.1 to 100 nM | 0.1 to 100 nM | 0.1 to 100 nM
4 | C=CC(=O)Nc1ccc2c(c1)c(C)cn2-c1nc(Nc2ccnn2C)ncc1C [Example 49, N-[3-methyl-1-[5-methyl-2-[(2-methylpyrazol-3-yl)amino]-pyrimidin-4-yl]indol-5-yl]prop-2-enamide] | 100 to 250 nM | 0.1 to 100 nM | 0.1 to 100 nM | 0.1 to 100 nM | 0.1 to 100 nM | 0.1 to 100 nM | 0.1 to 100 nM | 0.1 to 100 nM
5 | C=CC(=O)Nc1ccc2c(c1)c(C)cn2-c1ccnc(Nc2ccc(N3CCOCC3)cc2)n1 [Example 54, N-[3-Methyl-1-[2-(4-morpholinoanilino)pyrimidin-4-yl]indol-5-yl]prop-2-enamide] | 0.1 to 100 nM | 0.1 to 100 nM | 0.1 to 100 nM | 0.1 to 100 nM | 0.1 to 100 nM | 0.1 to 100 nM | 0.1 to 100 nM | 0.1 to 100 nM
6 | C=CC(=O)Nc1ccc2c(c1)c(C)cn2-c1nc(Nc2ccnn2C)ncc1Cl [Example 55, N-[1-[5-chloro-2-[(2-methylpyrazol-3-yl)amino]pyrimidin-4-yl]-3-methyl-indol-5-yl]prop-2-enamide] | 0.1 to 100 nM | 0.1 to 100 nM | 0.1 to 100 nM | 0.1 to 100 nM | 0.1 to 100 nM | 0.1 to 100 nM | 0.1 to 100 nM | –
7 | C=CC(=O)Nc1ccc2c(-c3nc(Nc4ccc(N5CCOCC5)cc4)ncc3F)cn(C)c2c1 [Example 57, N-[3-[5-Fluoro-2-(4-morpholinoanilino)pyrimidin-4-yl]-1-methyl-indol-6-yl]prop-2-enamide] | 0.1 to 100 nM | 0.1 to 100 nM | 0.1 to 100 nM | 0.1 to 100 nM | 0.1 to 100 nM | 0.1 to 100 nM | 0.1 to 100 nM | –
8 | C=CC(=O)Nc1ccc2c(c1)c(C)cn2-c1nc(Nc2cnn(C)c2)ncc1F [Example 61, N-[1-[5-fluoro-2-[(1-methylpyrazol-4-yl)amino]pyrimidin-4-yl]-3-methyl-indol-5-yl]prop-2-enamide] | 0.1 to 100 nM | 0.1 to 100 nM | 0.1 to 100 nM | 0.1 to 100 nM | 0.1 to 100 nM | 0.1 to 100 nM | 0.1 to 100 nM | 0.1 to 100 nM
9 | C=CC(=O)Nc1ccc2c(c1)c(C)cn2-c1nc(Nc2cc(C)nn2C)ncc1C [Example 64, N-[1-[2-[(2,5-dimethylpyrazol-3-yl)amino]-5-methyl-pyrimidin-4-yl]-3-methyl-indol-5-yl]prop-2-enamide] | 0.1 to 100 nM | 0.1 to 100 nM | 0.1 to 100 nM | 0.1 to 100 nM | 0.1 to 100 nM | 0.1 to 100 nM | 0.1 to 100 nM | 0.1 to 100 nM
10 | C=CC(=O)Nc1ccc2c(c1)c(C)cn2-c1nc(Nc2ccc(N3CCOCC3)cc2)ncc1F [Example 67, N-[1-[5-Fluoro-2-(4-morpholino-anilino)pyrimidin-4-yl]-3-methyl-indol-5-yl]prop-2-enamide] | 0.1 to 100 nM | 0.1 to 100 nM | 0.1 to 100 nM | 0.1 to 100 nM | 0.1 to 100 nM | 0.1 to 100 nM | 0.1 to 100 nM | –
11 | C=CC(=O)Nc1ccc2c(c1)c(C)cn2-c1nc(Nc2ccn(C)n2)ncc1C [Example 81, N-[3-methyl-1-[5-methyl-2-[(1-methylpyrazol-3-yl)amino]pyrimidin-4-yl]indol-5-yl]prop-2-enamide] | 0.1 to 100 nM | 0.1 to 100 nM | 0.1 to 100 nM | 0.1 to 100 nM | 0.1 to 100 nM | 0.1 to 100 nM | 0.1 to 100 nM | –
12 | C=CC(=O)Nc1cnc2c(c1)c(C)cn2-c1nc(Nc2ccnn2C)ncc1C [Example 85, N-[3-methyl-1-[5-methyl-2-[(2-methylpyrazol-3-yl)amino]pyrimidin-4-yl]pyrrolo[2,3-b]pyridin-5-yl]prop-2-enamide] | 0.1 to 100 nM | 0.1 to 100 nM | 0.1 to 100 nM | 0.1 to 100 nM | 0.1 to 100 nM | 0.1 to 100 nM | 0.1 to 100 nM | –
13 | C=CC(=O)Nc1ccc2c(-c3ccnc(Nc4cnn(CCO)c4)n3)cn(C)c2c1 [Example 106, N-[3-[2-[[1-(2-hydroxyethyl)pyrazol-4-yl]amino]pyrimidin-4-yl]-1-methyl-indol-6-yl]prop-2-enamide] | 0.1 to 100 nM | 0.1 to 100 nM | 0.1 to 100 nM | 0.1 to 100 nM | 0.1 to 100 nM | 0.1 to 100 nM | 0.1 to 100 nM | 0.1 to 100 nM
